Laboratory results as given in PubChem BioAssay (NCI).
Values joined by “and” are separate entries in the source; they are usually repeats but may differ in a detail not shown here. Equal values may be shown once.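 Cells were grown in 96-well plates and exposed to each compound for 48 hours at five concentrations; endpoints were interpolated linearly between bracketing concentrations, or set to the highest concentration if not reached. Here, GI50 denotes the concentration required for 50% inhibition of growth. TGI marks complete inhibition of growth.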

Assays:
Test in all cases: growth of human tumour cells (NCI), 48 h
[1] = system: SK-MEL-28 melanoma
[2] = system: A549 NSCLC
[3] = system: 786-0 renal
[4] = system: RPMI-8226 leukemia
[5] = system: SNB-19 CNS
[6] = system: OVCAR-5 ovarian
[7] = system: DU-145 prostate
[8] = system: SK-OV-3 ovarian
[9] = system: NCI-H522 lung
[10] = system: RXF 393 renal

Row | SMILES | GI50 [1] | TGI [1] | GI50 [2] | TGI [2] | GI50 [3] | TGI [3] [µM] | GI50 [4] | TGI [4] | GI50 [5] | TGI [5] | GI50 [6] | TGI [6] | GI50 [7] | TGI [7] | GI50 [8] | TGI [8] | GI50 [9] | TGI [9] | GI50 [10] | TGI [10] [µM]
1 | C=CCN=C(N/N=C/c1ccc([N+](=O)[O-])o1)NS(=O)(=O)c1cc(C(=O)Nc2ccccc2)c(Cl)cc1SCC(N)=O | 37.6 µM | > 100 µM | > 100 µM | > 100 µM | 63.7 µM | > 100 | 20.4 µM | 55.1 µM | 33.8 µM | > 100 µM | > 100 µM | > 100 µM | 22.4 µM | 71.9 µM | > 100 µM | > 100 µM | 27.8 µM | 67.1 µM | 24.8 µM | > 100
2 | COc1cc(/C=C\c2cc(OC)c(OC)c(OC)c2)cc(NS(=O)(=O)c2ccc(Cl)cc2)c1OC | 1.14 µM | > 100 µM | 0.716 µM | > 100 µM | 0.666 µM | > 100 | 0.387 µM | 33.2 µM | 0.745 µM | > 100 µM | 0.726 µM | > 100 µM | 0.507 µM | > 100 µM | 0.449 µM | > 100 µM | 0.209 µM | 0.87 µM | 0.272 µM | 1.24
3 | COc1ccc(/C(C)=C(\c2ccc(Cl)cc2)c2ccc(OCCN3CCCCCC3)cc2)cc1F | 2.54 µM | 4.9 µM | 5.27 µM | > 16.7 µM | 2.56 µM | 5.11 | 3.63 µM | 9.92 µM | 5.13 µM | > 16.7 µM | 2.95 µM | 8.18 µM | 4.47 µM | 15.6 µM | 5.05 µM | 16.6 µM | 3.92 µM | 9.71 µM | 2.55 µM | 5.17
4 | C=C(Cn1c2ccccc2c(=O)c2ccccc21)c1ccc(C(=O)Nc2ccccc2N)cc1 | > 100 µM | > 100 µM | 28.5 µM | > 100 µM | 1.89 µM | > 100 | 0.36 µM | 3.06 µM | – | > 100 µM | > 100 µM | > 100 µM | > 100 µM | > 100 µM | 5.99 µM | > 100 µM | 2.72 µM | > 100 µM | > 100 µM | > 100
5 | CN(C)c1ccc(N=C2C=CC(=C(C#N)C#N)c3ccccc32)cc1 | – | 20.5 µM | – | 13.7 µM | – | 11.4 | – | 11.6 µM | – | 12.7 µM | – | 10.6 µM | – | 3.34 µM | – | 6.53 µM | – | 0.305 µM | – | 8.6
6 | COC(=O)c1ccc2[nH]c(O)c(C(=Nc3ccc(N(C)C(=O)CN4CCN(C)CC4)cc3)c3ccccc3)c2c1 | 1.62 µM | 3.34 µM | 1.46 µM | 5.31 µM | 1.07 µM | 2.83 | 1.92 µM | 8.34 µM | 2.95 µM | 8.33 µM | 2.63 µM | 6.8 µM | 1.27 µM | 8.98 µM | 0.444 µM | 5 µM | 1.49 µM | 4.41 µM | 0.422 µM | 1.69
7 | Nc1nc(=S)c2[nH]cnc2[nH]1 | 1.94 µM and 6.07 µM | 28.8 µM and 162 µM | 2.29 µM and 4.7 µM and 5.85 µM | > 57.7 µM and 105 µM and 85.1 µM | 0.335 µM and 1.45 µM and 1.01 µM | – | 0.255 µM and 1.3 µM and 0.488 µM | 2.77 µM and 22.3 µM and 3 µM | 39.2 µM and 89 µM and 48.6 µM | > 100 µM and 241 µM and > 250 µM | 0.498 µM and 1.93 µM | > 100 µM and 46 µM and > 250 µM | 0.477 µM and 0.538 µM | > 32.1 µM and 144 µM and 28.7 µM | 0.293 µM and 0.784 µM | 8.82 µM and 17.5 µM and > 86 µM | 0.418 µM and 2.07 µM and 1 µM | 3.04 µM and 6.04 µM and 7.26 µM | 0.395 µM and 0.474 µM and 0.984 µM | –
8 | COC(=O)[C@H](Cc1cn(C)cn1)NC(=O)[C@@H](NC(=O)Nc1cc(C(F)(F)F)cc(C(F)(F)F)c1)C(C)C | 2.05 µM | 4.99 µM | > 10 µM | > 10 µM | > 10 µM | > 10 | 3.03 µM | > 10 µM | 6.71 µM | > 10 µM | > 10 µM | > 10 µM | > 10 µM | > 10 µM | > 10 µM | > 10 µM | 1.71 µM | 3.66 µM | 1.96 µM | 4.08
9 | CNCc1ccc(-c2[nH]c3cc(F)cc4c3c2CCNC4=O)cc1 | 15.6 µM | 32 µM | 19.4 µM | > 71.2 µM | 19 µM | 41.5 | 23.7 µM | 73.3 µM | 17.3 µM | 57 µM | 19.1 µM | 55.5 µM | 16 µM | 32.3 µM | 18.6 µM | 56 µM | 19 µM | 39.4 µM | 12.3 µM | 26.2
10 | CC1=C2[C@@H](CC1)[C@]1(C)O[C@@](C3CC3)(C[C@H]1OC(=O)CO)[C@H]2OC(=O)/C=C/c1ccccc1 | 18.6 µM | 36.3 µM | 13.2 µM | 27.3 µM | 3.19 µM | 25.7 | 19.8 µM | 54.4 µM | 17.6 µM | 35.6 µM | 17.5 µM | 36.5 µM | 16.9 µM | 30.9 µM | 15.6 µM | 29.6 µM | 15.9 µM | 32.4 µM | 0.0218 µM | 0.858
11 | CNCc1cccc2c1OCCOCCOCCC(C)S(=O)(=O)c1ccc(cc1)-c1cnc(N)c(n1)C(=O)N2 (configuration not stated) | 1.77 µM | 3.37 µM | 1.09 µM | 6.83 µM | 0.516 µM | 2.06 | 2.05 µM | 5.12 µM | 2.5 µM | 5.52 µM | 3.82 µM | 11.4 µM | 1.25 µM | 3.41 µM | 0.525 µM | 2.87 µM | 1.23 µM | 3.25 µM | 0.175 µM | 1.6
12 | COc1cccc(C2C(C#N)=C(N)Oc3cc4c(cc32)OCO4)c1 (configuration not stated) | 0.0813 µM | 32.6 µM | 0.0649 µM | 42.6 µM | 0.0621 µM | 24.1 | 0.0828 µM | 29.9 µM | 0.0682 µM | > 100 µM | 0.661 µM | > 100 µM | 0.0845 µM | 2.78 µM | 0.0508 µM | 4.71 µM | 0.0185 µM | 0.0715 µM | 0.029 µM | 0.0927
13 | COc1c(O)c2c3c(c1OC)-c1ccccc1CC3N(S(=O)(=O)c1ccc(C)cc1)CC2 (configuration not stated) | 2.51 µM | > 50 µM | 2 µM | > 50 µM | 4.89 µM | > 50 | 1.51 µM | 4.25 µM | 3.29 µM | > 50 µM | 2.69 µM | > 50 µM | 1.62 µM | 6.41 µM | 1.96 µM | 38.4 µM | 1.28 µM | 3.55 µM | 1.34 µM | 4.12
14 | COc1ccc(/C=C\c2cc(OC)c(OC)c(OC)c2)c(NS(=O)(=O)c2ccc(C(C)(C)C)cc2)c1O | 4.91 µM | 22.2 µM | 0.626 µM | 33 µM | 0.49 µM | 14.6 | 0.508 µM | 25.6 µM | 0.56 µM | 26.6 µM | 0.626 µM | 22.3 µM | 0.395 µM | 12.5 µM | 1.42 µM | 45.9 µM | 0.213 µM | 12.2 µM | 0.0379 µM | 16
15 | CCCCC[C@@H](C/C=C/CCC(=O)NC/C(=C/Cl)[C@H]1C(=O)C(C)(C)C(=O)[C@@H](C)[C@@]1(C)O)OC | 18.1 µM | 33.8 µM | 16.2 µM | 33.3 µM | 1.58 µM | 16.9 | 6.23 µM | 23 µM | 20.3 µM | 42 µM | 18.9 µM | 34.7 µM | 16.8 µM | 31.8 µM | 30.8 µM | 68.7 µM | 13.9 µM | 28 µM | 17.4 µM | 34.2
16 | CCCCCCCCCCCCOC1C(C(CC(=O)N2CCN(Cc3ccc4c(c3)OCO4)CC2)NS(=O)(=O)c2cc(Cl)cc(Cl)c2)OC2OC(C)(C)OC21 (configuration not stated) | > 100 µM | > 100 µM | 8.48 µM | > 100 µM | 20.4 µM | > 86.5 | 3.79 µM | > 47.5 µM | 44.7 µM | > 100 µM | 6.49 µM | > 100 µM | 25.5 µM | > 100 µM | > 100 µM | > 100 µM | 26.9 µM | > 100 µM | 6.43 µM | 28.1
